Data taken from PubChem BioAssay AID256 (DTP/NCI, 2004).
Inconclusive results and toxic doses are left out.

Test system: CD2F1 mice, L1210 leukemia ip, survival T/C
Assay: NCI In Vivo Anticancer Drug Screen. Data for tumor model L1210 Leukemia (intraperitoneal) in CD2F1 (CDF1) mice
Conditions: endpoint: mean survival time, higher = longer survival
In short: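 Mice carrying a transplanted tumor received test compound or vehicle alone. The value is the measurement in the treated group divided by that in the vehicle-treated control group.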

[1] = dose: 25.0 mg/kg/injection, schedule: Q04DX002 (ip), vehicle: saline with Tween-80
[2] = dose: 50.0 mg/kg/injection, schedule: Q04DX002 (ip), vehicle: saline with Tween-80
[3] = dose: 100.0 mg/kg/injection, schedule: Q04DX002 (ip), vehicle: saline with Tween-80
[4] = dose: 100.0 mg/kg/injection, schedule: Q04DX003 (ip), vehicle: saline with Tween-80
[5] = dose: 200.0 mg/kg/injection, schedule: Q04DX003 (ip), vehicle: saline with Tween-80
[6] = dose: 100.0 mg/kg/injection, schedule: Q04DX003 (ip), vehicle: saline
[7] = dose: 200.0 mg/kg/injection, schedule: Q04DX003 (ip), vehicle: saline
[8] = dose: 400.0 mg/kg/injection, schedule: Q04DX003 (ip), vehicle: saline
[9] = dose: 100.0 mg/kg/injection, schedule: Q01DX009 (ip), vehicle: saline with Tween-80
[10] = dose: 200.0 mg/kg/injection, schedule: Q01DX009 (ip), vehicle: saline with Tween-80
[11] = dose: 400.0 mg/kg/injection, schedule: Q01DX009 (ip), vehicle: saline with Tween-80
[12] = dose: 12.5 mg/kg/injection, schedule: Q01DX009 (ip), vehicle: saline with Tween-80
[13] = dose: 12.5 mg/kg/injection, schedule: Q04DX003 (ip), vehicle: saline with Tween-80
[14] = dose: 50.0 mg/kg/injection, schedule: Q01DX009 (ip), vehicle: saline with Tween-80

O=C(O)C1C2CCC(C2)C1C(=O)O (configuration not stated) was tested, and the T/C [1] was 118 % of control, the T/C [2] was 100 % of control and the T/C (dose: 100.0 mg/kg/injection, schedule: Q01DX001 (ip), vehicle: Klucel (hydroxypropylcellulose) (HPC)) was 108 % of control. The T/C [3] was 89 % of control, the T/C [4] was 105 % of control and the T/C (dose: 200.0 mg/kg/injection, schedule: Q01DX001 (ip), vehicle: Klucel (hydroxypropylcellulose) (HPC)) was 98 % of control. The T/C (dose: 200.0 mg/kg/injection, schedule: Q04DX002 (ip), vehicle: saline with Tween-80) was 93 % of control, the T/C [5] was 102 % of control and the T/C (dose: 400.0 mg/kg/injection, schedule: Q01DX001 (ip), vehicle: Klucel (hydroxypropylcellulose) (HPC)) was 96 % of control.
In the case of O=C(c1ccccc1)C12CC3CC1C2C3, the T/C [6] is reported as 97 % of control, the T/C [7] is reported as 100 % of control and the T/C [8] is reported as 89 % of control.
In the case of O=S(=O)(O)c1ccc(O)cc1, the T/C (dose: 100.0 mg/kg/injection, schedule: Q01DX001 (ip), vehicle: saline) is reported as 103 % of control, the T/C (dose: 200.0 mg/kg/injection, schedule: Q01DX001 (ip), vehicle: saline) is reported as 108 % of control and the T/C (dose: 400.0 mg/kg/injection, schedule: Q01DX001 (ip), vehicle: saline) is reported as 100 % of control.
O=C1C(CO)(CO)CCC1(CO)CO was tested, and the T/C (dose: 100.0 mg/kg/injection, schedule: Q01DX009 (ip), vehicle: saline) was 91 % of control, the T/C (dose: 200.0 mg/kg/injection, schedule: Q01DX009 (ip), vehicle: saline) was 93 % of control and the T/C (dose: 400.0 mg/kg/injection, schedule: Q01DX009 (ip), vehicle: saline) was 98 % of control.
CCOC(=O)C(=O)C[n+]1cc2ccccc2cc1/C=N/O was tested, and the T/C [6] was 105 % of control, the T/C [7] was 105 % of control and the T/C [8] was 94 % of control.
With Cc1ccc(S/C=C/C(=O)Nc2ccccc2)cc1 the T/C [1] was 101 % of control, the T/C [2] was 94 % of control and the T/C (dose: 100.0 mg/kg/injection, schedule: Q01DX001 (ip), vehicle: saline with Tween-80) was 97 % of control. For the same molecule, the T/C [3] was 101 % of control, the T/C [4] was 87 % of control and the T/C (dose: 200.0 mg/kg/injection, schedule: Q01DX001 (ip), vehicle: saline with Tween-80) was 105 % of control. For the same molecule, the T/C (dose: 400.0 mg/kg/injection, schedule: Q01DX001 (ip), vehicle: saline with Tween-80) was 94 % of control.
In the case of COc1ccccc1OC, the T/C [9] is reported as 95 % of control, the T/C [10] is reported as 92 % of control and the T/C [11] is reported as 92 % of control.
In the case of C[C@@H]1CC2=CC(=O)CC[C@]2(C)[C@H]2CC[C@]3(C)[C@@H](O)CC[C@H]3[C@H]12, the T/C [4] is reported as 98 % of control, the T/C [5] is reported as 119 % of control and the T/C (dose: 400.0 mg/kg/injection, schedule: Q04DX003 (ip), vehicle: saline with Tween-80) is reported as 98 % of control.
For O=[N+]([O-])c1ccc(/C=N/O)s1, the T/C [12] was 106 % of control and the T/C (dose: 25.0 mg/kg/injection, schedule: Q01DX009 (ip), vehicle: saline with Tween-80) was 98 % of control.
In the case of CN(C)c1ccc(/C=N/NC(=O)c2ccccc2)cc1, the T/C (dose: 3.12 mg/kg/injection, schedule: Q04DX003 (ip), vehicle: saline with Tween-80) is reported as 90 % of control, the T/C (dose: 6.25 mg/kg/injection, schedule: Q04DX003 (ip), vehicle: saline with Tween-80) is reported as 96 % of control and the T/C [13] is reported as 94 % of control.
With COc1ccc(NC(=O)Nc2ccc(C)cc2C)cc1 the T/C [9] was 86 % of control and the T/C [10] was 88 % of control.
Nc1ccn(C2OC(COP(=O)(O)O)C(O)C2O)c(=O)n1 (configuration not stated) was tested, and the T/C (dose: 4.0 mg/kg/injection, schedule: Q03HX024 (ip), vehicle: saline) was 337 % of control, the T/C (dose: 8.0 mg/kg/injection, schedule: Q01DX008 (ip), vehicle: saline) was 176 % of control and the T/C (dose: 8.0 mg/kg/injection, schedule: Q03HX024 (ip), vehicle: saline) was 302 % of control. The T/C (dose: 16.0 mg/kg/injection, schedule: Q01DX008 (ip), vehicle: saline) was 183 % of control, the T/C (dose: 16.0 mg/kg/injection, schedule: Q01DX009 (ip), vehicle: saline) was 185 % of control and the T/C (dose: 16.0 mg/kg/injection, schedule: Q03HX024 (ip), vehicle: saline) was 487 % of control. The T/C (dose: 16.0 mg/kg/injection, schedule: Q03HX024 (oral), vehicle: saline) was 228 % of control, the T/C (dose: 32.0 mg/kg/injection, schedule: Q01DX008 (ip), vehicle: saline) was 173 % of control and the T/C (dose: 32.0 mg/kg/injection, schedule: Q01DX009 (ip), vehicle: saline) was 215 % of control. For the same molecule, the T/C (dose: 32.0 mg/kg/injection, schedule: Q03HX024 (ip), vehicle: saline) was 240 % of control, the T/C (dose: 32.0 mg/kg/injection, schedule: Q03HX024 (oral), vehicle: saline) was 266 % of control and the T/C (dose: 64.0 mg/kg/injection, schedule: Q01DX001 (ip), vehicle: saline) was 121 % of control. The T/C (dose: 64.0 mg/kg/injection, schedule: Q01DX008 (ip), vehicle: saline) was 155 % of control, the T/C (dose: 64.0 mg/kg/injection, schedule: Q01DX008 (oral), vehicle: saline) was 156 % of control and the T/C (dose: 64.0 mg/kg/injection, schedule: Q01DX009 (ip), vehicle: saline) was 212 % of control. For the same molecule, the T/C (dose: 64.0 mg/kg/injection, schedule: Q03HX024 (oral), vehicle: saline) was 300 % of control, the T/C (dose: 128.0 mg/kg/injection, schedule: Q01DX001 (ip), vehicle: saline) was 117 % of control and the T/C (dose: 128.0 mg/kg/injection, schedule: Q01DX001 (oral), vehicle: saline) was 106 % of control. The T/C (dose: 128.0 mg/kg/injection, schedule: Q01DX008 (oral), vehicle: saline) was 167 % of control, the T/C (dose: 128.0 mg/kg/injection, schedule: Q01DX009 (oral), vehicle: saline) was 155 % of control and the T/C (dose: 128.0 mg/kg/injection, schedule: Q03HX024 (oral), vehicle: saline) was 155 % of control. For the same molecule, the T/C (dose: 128.0 mg/kg/injection, schedule: Q04DX003 (oral), vehicle: saline) was 120 % of control, the T/C (dose: 256.0 mg/kg/injection, schedule: Q01DX001 (ip), vehicle: saline) was 112 % of control and the T/C (dose: 256.0 mg/kg/injection, schedule: Q01DX001 (oral), vehicle: saline) was 107 % of control. For the same molecule, the T/C (dose: 256.0 mg/kg/injection, schedule: Q01DX009 (oral), vehicle: saline) was 172 % of control, the T/C (dose: 256.0 mg/kg/injection, schedule: Q04DX003 (oral), vehicle: saline) was 121 % of control and the T/C (dose: 512.0 mg/kg/injection, schedule: Q01DX001 (oral), vehicle: saline) was 109 % of control. For the same molecule, the T/C (dose: 512.0 mg/kg/injection, schedule: Q01DX009 (oral), vehicle: saline) was 182 % of control, the T/C (dose: 1024.0 mg/kg/injection, schedule: Q01DX001 (oral), vehicle: saline) was 155 % of control and the T/C (dose: 1024.0 mg/kg/injection, schedule: Q01DX009 (oral), vehicle: saline) was 104 % of control. The T/C (dose: 1024.0 mg/kg/injection, schedule: Q04DX003 (oral), vehicle: saline) was 164 % of control.
For CNc1cccnc1/C=N/NC(N)=S, the T/C [12] was 104 % of control, the T/C [14] was 154 % of control and the T/C [9] was 162 % of control. The T/C [10] was 181 % of control and the T/C [11] was 90 % of control.
With O=C(/C=C/c1ccc(Cl)c(Cl)c1)c1ccccc1 the T/C (dose: 50.0 mg/kg/injection, schedule: Q01DX009 (ip), vehicle: Klucel (hydroxypropylcellulose) (HPC)) was 105 % of control and the T/C (dose: 100.0 mg/kg/injection, schedule: Q01DX009 (ip), vehicle: Klucel (hydroxypropylcellulose) (HPC)) was 98 % of control.
For Nc1ncnc2c1nnn2C1OC(CO)C(O)C1O (configuration not stated), the T/C (dose: 10.0 mg/kg/injection, schedule: Q01DX009 (ip), vehicle: Klucel (hydroxypropylcellulose) (HPC)) was 110 % of control, the T/C (dose: 15.0 mg/kg/injection, schedule: Q01DX009 (ip), vehicle: Klucel (hydroxypropylcellulose) (HPC)) was 107 % of control and the T/C (dose: 28.0 mg/kg/injection, schedule: Q01DX009 (ip), vehicle: Klucel (hydroxypropylcellulose) (HPC)) was 121 % of control. The T/C (dose: 63.0 mg/kg/injection, schedule: Q01DX009 (ip), vehicle: Klucel (hydroxypropylcellulose) (HPC)) was 115 % of control.
With O=S(=O)(OC(Cc1ccccc1)Cc1ccccc1)c1ccc(Br)cc1 the T/C [14] was 95 % of control, the T/C [9] was 91 % of control and the T/C [10] was 95 % of control.
CCn1c(N)c2c(ncn2Cc2ccccc2)nc1=S was tested, and the T/C (dose: 12.5 mg/kg/injection, schedule: Q01DX001 (ip), vehicle: acetone) was 100 % of control, the T/C [13] was 98 % of control and the T/C (dose: 25.0 mg/kg/injection, schedule: Q01DX001 (ip), vehicle: acetone) was 100 % of control. The T/C (dose: 25.0 mg/kg/injection, schedule: Q04DX003 (ip), vehicle: saline with Tween-80) was 98 % of control, the T/C (dose: 50.0 mg/kg/injection, schedule: Q01DX001 (ip), vehicle: acetone) was 103 % of control and the T/C (dose: 50.0 mg/kg/injection, schedule: Q04DX003 (ip), vehicle: saline with Tween-80) was 89 % of control.
